Converted amounts (≈) assume the structure as drawn.
Assays:
in vitro = settings: human, pH 8.4
Experimental: (§1) In all cases examined, product formation was directly determined by HPLC analysis of organic extracts.
(§2) Human liver samples were obtained from the Department of Surgery (UCSF) and with a protocol from the Medical College of Wisconsin (S. Wrighton).
(§3) A typical incubation mixture (final volume 0.25 ml) contained hepatic microsomes (0.4 mg of protein) or bacterial lysate (2.3 mg of protein), NADP^+ (0.5 mM), glucose-6-phosphate (2.0 mM), glucose-6-phosphate dehydrogenase (1 IU), DETAPAC (0.8 mM) and potassium phosphate buffer (50 mM, pH 8.4). Reactions were initiated by the addition of substrate and terminated at designated times by the addition of three volumes of cold dichloromethane, mixed thoroughly and centrifuged to separate the aqueous and organic fractions. N- and S-oxide metabolic products in the resulting organic extracts were separated and quantified by HPLC. […] Thiobenzamide and thiobenzamide S-oxide were quantified with this same, HPLC system employing a mobile phase of methanol/acetonitrile/60% perchloric acid (20:80:0.016, v/v) which gave retention volumes of 2.7 and 7.0 ml, respectively. […] The major metabolites formed in the incubations were also subjected to mass spectral analysis after extraction of isolated HPLC fractions.
(§4) RPLC of the S-oxide diastereomers with a Chiracel OT chiral analytical column (25 cm×0.15 cm inner diameter, Daicel Chemical Co., New York, N.Y.) was accomplished with a Beckman system, Kratos UV detector (240 nm) and a Hewlett Packard Integrator. […] Quantification was accomplished by comparing integrated HPLC peak areas after taking into account the difference in the extinction coefficients at 240 nm. Likewise, the cis and trans S-oxide diasteromers of (+)- and (−)-2-methyl-1,-benzodithiole were separated with a Chiracel OT chiral analytical column.

Human Liver Microsomes = test: in vitro
Experimental: as §1, §2, §3, §4

[1] = target: T1, adult human liver flavin-containing monooxygenase (form 3) (Homo sapiens, UniProt P31513, E158K); test: N- and S-oxygenation by cDNA-expressed HLFMO 3 (solubilized protein from E. coli transformed with pTrcHLFMO 3), HPLC
T1 sequence (P31513 1-532 E158K): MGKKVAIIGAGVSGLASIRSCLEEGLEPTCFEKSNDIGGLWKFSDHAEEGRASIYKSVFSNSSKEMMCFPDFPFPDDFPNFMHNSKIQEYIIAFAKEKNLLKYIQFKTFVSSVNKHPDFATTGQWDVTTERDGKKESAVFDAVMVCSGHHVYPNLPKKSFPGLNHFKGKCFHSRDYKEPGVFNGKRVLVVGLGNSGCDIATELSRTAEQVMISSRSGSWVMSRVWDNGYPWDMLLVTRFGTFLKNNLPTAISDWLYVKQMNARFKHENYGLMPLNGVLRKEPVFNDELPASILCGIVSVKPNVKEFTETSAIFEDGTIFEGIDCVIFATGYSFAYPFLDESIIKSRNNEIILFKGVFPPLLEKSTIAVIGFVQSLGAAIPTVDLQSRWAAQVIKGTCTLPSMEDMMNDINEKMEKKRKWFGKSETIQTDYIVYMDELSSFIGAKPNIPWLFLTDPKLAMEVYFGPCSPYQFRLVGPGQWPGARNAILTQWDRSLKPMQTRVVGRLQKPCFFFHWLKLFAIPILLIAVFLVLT
Experimental: as §1
Competent NM522 Escherichia coli cells were transformed with the pTrc HLFMO 3 plasmid. […] After inoculation with a fresh overnight culture of NM522 containing pTrcHLFMO 3, the culture was grown at 37° C. until Abs600 was approximately 0.5 absorbance units. Finally, IPTG (0.8 mM) was added to the culture to induce expression of protein and the culture was left to grow overnight at 37° C.
The bacterial pellet was resuspended in 5 volumes of 50 mM potassium phosphate buffer (pH 8.4) containing 1% Triton X-100, 0.1% L-, α-phosphatidylcholine (L-α-lecithin) from egg yolk, 500 μM PMSF, and 1 mM EDTA. The mixture was sonicated and then centrifuged to remove cellular debris. As a control, bacterial lysate extracts from IPTG-induced pTrc99A-transformed NM522 cells (i.e., pTrc99A without the HLFMO 3 cDNA insert) were prepared under the same conditions.
as §2, §3, §4

[2] = tested on: E. coli strains that contained FMO3 cDNA; test: Agar plate growth in the presence of difloxacin, strains with FMO3 cDNA; format: cell-based; settings: same conditions (0.25 microgram/mL)
From the text: (§5) To validate the observations made in liquid culture, agar plate experiments were done in the presence of difloxacin with different strains streaked out containing different FMO cDNAs.

NM522 E. coli = test: Bactericidal action / cytotoxicity in liquid culture; settings: Escherichia coli, read-out: bactericidal action EC50
[3] = tested on: E. coli containing FMO1 cDNA plasmid; test: Agar plate growth in the presence of difloxacin, strain with FMO1 plasmid; format: cell-based; settings: 0.25 microgram/mL
From the text: as §5

| Km (in vitro) [µM] | Vmax, Human Liver Microsomes (Human Liver Microsomes) | substrate activity for human liver microsomes and expressed HLFMO 3, in words [1] | pH of maximum S-oxygenase activity ([1]; in the presence of microsomes and expressed HLFMO 3) | SMILES | sensitivity of strains containing FMO3 cDNA to the antibiotic [2] | EC50 (NM522 E. coli) [mg/L] | effect of FMO1 plasmid on growth in the presence of the antibiotic [3] |
| --- | --- | --- | --- | --- | --- | --- | --- |
| 14.9 | 1.3 nmol/min/mg of protein | excellent substrates | ~8.5 | NC(=S)c1ccccc1 [Thiobenzamide, thiobenzamide] |  |  |  |
|  |  |  |  | CN1CCN(c2cc3c(cc2F)c(=O)c(C(=O)O)cn3-c2ccc(F)cc2)CC1 [difloxacin] | much more sensitive | ~5 (≈ 12.5 µM) | conferred resistance |
